Measurements from US4806547A, “Isoquinoline derivatives, analgesic compounds thereof and method of treating pain” (Dr. Lo. Zambeletti SPA, priority 1986, dated 1989).
pKi: −log10 of the molar value. Counter-ions that a name gives are not always drawn. Like-named read-outs stand apart in the source and are kept apart here.

Assays:
[1] = target: μ opioid receptor (μ sites) (Cavia porcellus, UniProt A0ACM8Q262); assay: Receptor binding to μ sites (3H-DAGO)
Description: Radio receptor binding to μ and K sites is performed on fresh guinea pig brain homogenate prepared according to Kosterlitz.
(§1) Whole brain without cerebellum is homogenized in 50 mM, Tris-buffer (pH 7.4 at 0° C.) and centrifuged at 49,000×g×10 min.
(§2) The pellet is then resuspended in the same buffer, incubated at 37° C. for 45 min. and centrifuged again.
(§3) 1.9 ml of the final homogenate (1:100 in Tris-pH 7.4, 0° C.) is used for the binding assay.
^3 H[D--Ala^2, MePhe^4, Gly--ol^5 ]
The filters are then dryed, solubilized in Filtercount and the radioactivity monitored. Non specific binding is determined in the presence of 10^-6 M Naloxone.
(§4) A concentration of radioligand near KD is used in the binding assays evaluating our compounds.

[2] = target: T1, K (Kappa) opioid receptor (K sites) (Cavia porcellus, UniProt P41144); assay: Receptor binding to K sites (tritiated Ethylketocyclazocine); set-up: species or system guinea pig
T1 construct: fresh guinea pig brain homogenate; from tissue; host or cells: guinea pig whole brain without cerebellum, homogenate
T1 sequence (P41144 whole entry): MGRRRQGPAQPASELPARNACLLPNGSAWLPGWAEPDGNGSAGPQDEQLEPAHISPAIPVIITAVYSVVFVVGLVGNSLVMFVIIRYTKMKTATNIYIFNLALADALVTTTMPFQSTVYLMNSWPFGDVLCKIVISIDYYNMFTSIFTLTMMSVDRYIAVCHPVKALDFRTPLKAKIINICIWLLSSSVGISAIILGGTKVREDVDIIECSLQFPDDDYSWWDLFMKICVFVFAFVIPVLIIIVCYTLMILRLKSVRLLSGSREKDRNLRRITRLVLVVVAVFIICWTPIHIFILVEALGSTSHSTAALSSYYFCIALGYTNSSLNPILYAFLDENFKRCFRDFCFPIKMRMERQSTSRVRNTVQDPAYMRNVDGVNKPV
Description: Radio receptor binding to μ and K sites is performed on fresh guinea pig brain homogenate prepared according to Kosterlitz. (1981).
as §1, §2, §3
Binding to K sites (Magnan J., 1982)
The binding of tritiated Ethylketocyclazocine to brain homogenate is measured in the presence of 100 nanomolar D--Ala--D--LeuEnkephalin (DADLE) and 100 nanomolar DAGO, added to saturate the δ and μ opioid receptors respectively.
Final homogenate with solutions of the cold ligand and of the labelled ligand is incubated for 40 min. at 25° C., filtered through Whatman GF/C glass filter discs and washed.
The radioactivity bound to the filters is counted by liquid scintillation spectrophotometry.
MR 2266.500 nM is utilized to determine the saturable binding.
For the calculation of the kinetic parameters of the binding of labelled and unlabelled ligands, the equilibrium dissociation constant (KD), the inhibition constant (Ki) and the maximum number of binding sites (B max) are determined from saturation curves and competition experiments (Hill 1910; Scatchard 1949; Cheng and Prusoff 1973); Gillan et al. 1980).
as §4

[3] = test system: mice; assay: Mouse Tail-flick test (analgesic activity); type: in vivo, mouse (male Charles River); details: 30 min after dosing; for ED50: Mus musculus, sc, 0.5 h, s.c., mice doubling the initial reaction time
Description: Mouse Tail-flick test (Modified from the procedure published by D'Amour et al., J. Pharm. Exptl. Ther.72, 74/1941).
Male Charles River mice, average weight 26 g, are used. Selection is carried out before beginning of experiments: only mice whose reaction time is less than 8 sec are used. They are randomly distributed into groups of 10 and dosed with compounds under test, with positive and negative controls being included.
Compounds under test are administered subcutaneously in isotonic saline in a volume of 20 ml. Kg^-1. 30 min later mice are placed again under heat source (Socrel apparatus) and reaction time is recorded.
The analgesic activity of the test compound is expressed as the percent number of mice doubling the initial time within a group. [formula]

[4] = read-out: RECEPTOR BINDING Ki μ, guinea pig brain homogenate, 25° C., 40 min
[5] = guinea pig brain homogenate, 25° C., 40 min, read-out: RECEPTOR BINDING Ki μ
[6] = read-out: RECEPTOR BINDING Ki K, guinea pig brain homogenate, tritiated Ethylketocyclazocine with 100 nM DADLE and 100 nM DAGO, 25° C., 40 min

Chain of μ opioid receptor (μ sites) (A0ACM8Q262 1-400): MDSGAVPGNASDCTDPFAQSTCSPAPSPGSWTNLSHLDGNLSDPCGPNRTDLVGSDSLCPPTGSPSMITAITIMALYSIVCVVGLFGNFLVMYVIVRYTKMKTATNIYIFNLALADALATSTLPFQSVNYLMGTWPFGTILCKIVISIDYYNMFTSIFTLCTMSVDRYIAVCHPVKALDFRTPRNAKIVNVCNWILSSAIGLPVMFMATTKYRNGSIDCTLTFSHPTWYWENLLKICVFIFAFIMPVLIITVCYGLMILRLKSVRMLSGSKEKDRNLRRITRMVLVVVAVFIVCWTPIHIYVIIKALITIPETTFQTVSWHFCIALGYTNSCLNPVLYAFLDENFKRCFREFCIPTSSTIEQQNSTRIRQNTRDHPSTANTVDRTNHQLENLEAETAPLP

SMILES: CN(C)CC1c2ccccc2CCN1C(=O)Cc1ccc(Cl)c(Cl)c1 (single isomer, unassigned) [Example 3, hemihydrate]
- pKi [1, 4]: 6.54
- pKi [2]: 8.63
- ED50 [3]: 0.032 mg/kg

SMILES: O=C(Cc1ccc(Cl)c(Cl)c1)N1CCc2ccccc2C1CN1CCCC1 (single isomer, unassigned) [Example 9, (-)-1-[1-pyrrolidinylmethyl)-2-(3,4-dichlorophenylacetyl)-1,2,4-tetrahydroisoquinoline (-)-tartrate]
- ED50 [3]: 0.009 mg/kg

SMILES: CN(C)CC1c2ccccc2CCN1C(=O)Cc1ccc(Cl)c(Cl)c1 (stereo not drawn) [Example 1, 1-dimethylaminomethyl-2-(3,4-dichlorophenyl)-acetyl-1,2,3,4-tetrahydroisoquinoline hydrochloride]
- pKi [1, 4]: 6.38
- pKi ([2]; guinea pig brain homogenate, tritiated Ethylketocyclazocine with 100 nM DADLE and 100 nM DAGO, 25° C., 40 min, read-out: RECEPTOR BINDING Ki K): 8.80
- ED50 [3]: 0.041 mg/kg

SMILES: CN(C)CC1c2ccccc2CCN1C(=O)Cc1ccc(Br)cc1 (stereo not drawn) [Example 4, 2-(4-bromophenylacetyl)-1-dimethylaminomethyl-1,2,3,4-tetrahydroisoquinoline hydrochloride]
- pKi [1, 5]: 6.22
- pKi [2]: 8.50
- ED50 [3]: 0.25 mg/kg

SMILES: CN(C)CC1c2ccccc2CCN1C(=O)Cc1ccc([N+](=O)[O-])cc1 (stereo not drawn) [Example 5, 1-dimethylaminomethyl-2-(nitrophenylacetyl)-1,2,3,4-tetrahydroisoquinoline hydrochloride hemihydrate]
- pKi [1, 5]: 6.18
- pKi [2, 6]: 8.24
- ED50 [3]: 0.23 mg/kg

SMILES: CN(C)CC1c2ccccc2CCN1C(=O)Cc1ccccc1[N+](=O)[O-] (stereo not drawn) [Example 6, 1-dimethylaminomethyl-2-(2-nitrophenylacetyl)-1,2,3,4-tetrahydroisoquinoline hydrochloride hemihydrate]
- pKi [1, 5]: < 5.00
- pKi [2, 6]: 7.51

SMILES: O=C(Cc1ccc(Cl)c(Cl)c1)N1CCc2ccccc2C1CN1CCCC1 (stereo not drawn) [Example 7, 1-[1-pyrrolidinylmethyl)-2-(3,4-dichlorophenylacetyl)-1,2,3,4-tetrahydroisoquinoline hydrochloride]
- ED50 [3]: 0.016 mg/kg

SMILES: O=C(Cc1ccc(Br)cc1)N1CCc2ccccc2C1CN1CCCC1 (stereo not drawn) [Example 10, 1-(1-pyrrolidinylmethyl)-2-(4-bromophenylacetyl)-1,2,3,4-tetrahydroisoquinoline hydrochloride]
- pKi [1, 4]: 7.30
- pKi [2]: 9.24
- ED50 [3]: 0.031 mg/kg

SMILES: O=C(Cc1ccc([N+](=O)[O-])cc1)N1CCc2ccccc2C1CN1CCCC1 (stereo not drawn) [Example 11, 1-(1-pyrrolidinylmethyl)-2-(4-nitrophenylacetyl)-1,2,3,4-tetrahydroisoquinoline hydrochloride hemihydrate]
- pKi [1, 4]: 7.21
- pKi [2, 6]: 9.19
- ED50 [3]: 0.016 mg/kg

SMILES: O=C(Cc1cccc([N+](=O)[O-])c1)N1CCc2ccccc2C1CN1CCCC1 (stereo not drawn) [Example 12, 1-(1-pyrrolidinylmethyl)-2-(3-nitrophenylacetyl)-1,2,3,4-tetrahydroisoquinoline hydrochloride hydrate]
- ED50 [3]: 0.23 mg/kg

SMILES: O=C(Cc1ccccc1[N+](=O)[O-])N1CCc2ccccc2C1CN1CCCC1 (stereo not drawn) [Example 13, 1-(1-pyrrolidinylmethyl)-2-(2-nitrophenylacetyl)-1,2,3,4-tetrahydroisoquinoline hydrochloride hemihydrate]
- pKi [1, 5]: 5.73
- pKi [2, 6]: 8.10

SMILES: O=C(Cc1ccc(C(F)(F)F)cc1)N1CCc2ccccc2C1CN1CCCC1 (stereo not drawn) [Example 14, 1-(1-pyrrolidinylmethyl)-2-(4-trifluoromethylacetyl)-1,2,3,4-tetrahydroisoquinoline hydrochloride]
- ED50 [3]: 0.33 mg/kg

SMILES: N#Cc1ccc(CC(=O)N2CCc3ccccc3C2CN2CCCC2)cc1 (stereo not drawn) [Example 15, 1-(1-pyrrolidinylmethyl)-2-(4-cyanophenylacetyl)-1,2,3,4-tetrahydroisoquinoline hydrochloride sesquihydrate]
- MOUSE TAIL FLICK % protection ([3]; at 1 mg/kg s.c.): 70%
